Literature values in US9585967B2, “Nicotine-containing product” (priority 2008, dated 2017).

Experiments:
[1] = extensive first-pass metabolism
[2] = in vivo

Question: Which results are given for CN1CCC[C@H]1c1cccnc1 [Nicotine, (S)-3-(1-Methyl-2-pyrrolidinyl)pyridine]?
Answer: Oral bioavailability [1]: about 30%; half life in the body [2]: around two
